For one data set, the system named is WT EGFR cell line A-431. Briefly: Cell proliferation, WT EGFR A431 (CellTiter-Glo, 72 h).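 Further: proliferation from a luminescent ATP viability signal, expressed as 100 × (treated minus time-zero plate) over (DMSO control minus time-zero plate), cells grown with 10% FBS.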 Format: cell-based. The settings on record: Homo sapiens, A-431, 72 h, A431, 72 h proliferation; read-out: EGFR WT A431 GI50.
Data set [1] in a line: In vitro rat hepatocytes clearance assay. The conditions noted are these: male, rat, cryopreserved rat hepatocytes (suspension), rat hepatocytes Clint (µL/min/10^6cells), 1 µM-range incubation up to 100 min.
The next data set has as its system OCI-LY-10 cells. Briefly: BTK (wt) cell proliferation, OCI-LY-10 (CellTiter-Glo, 72 h).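 Further: viable cells quantified via cellular ATP luminescence, proliferation given as percent of DMSO control after subtracting a duplicate plate read at time of dosing.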 It is filed as cell-based. The conditions noted are these: Homo sapiens, OCI-Ly10, 72 h, OCI-LY-10 cells, 72 h, CellTiter-Glo; read-out: BTK WT OCI-LY-10 GI50.
In data set [2] the target is T1, human EGFR exon 20 V769_D770insASV (Homo sapiens, UniProt P00533, INS769ASV).
T1 construct: expressed in transfected cells; host or cells: Ba/F3 (DSMZ ACC-300), lentiviral transduction, puromycin selection, IL3 depletion
Briefly: EGFR Exon20 ASV insertion cellular phosphorylation inhibition (MSD pEGFR Y1068/total EGFR).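 Further: electrochemiluminescent readout on an MSD SECTOR Imager, IL3-independent transduced cells in medium with 1% FBS, compound concentration series at 37 °C and 5% CO2.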 Format: cell-based. The conditions noted are these: Ba/F3 EGFR ASV ins cells, 4 h compound, p-EGFR(Y1068)/total EGFR.

The test system of the next data set is Ba/F3 EGFR NPH ins cells. Briefly: Cell proliferation, Ba/F3 EGFR NPH ins (CellTiter-Glo, 72 h).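 Further: IL3-independent cells carrying constitutively phosphorylated EGFR, compound dilution series, viable cells quantified by ATP luminescence, growth relative to DMSO wells after subtracting pre-dosing (day 0) baseline.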 It is filed as cell-based. The settings on record: Ba/F3 EGFR, 72 h, Ba/F3 EGFR NPH ins, 72 h proliferation; read-out: EGFR Exon20 NPH insertion GI50. (In general: ATP-based viability assays read luminescence as a measure of living cells.)
The next data set deals with TMD-8 cells. Briefly: BTK (wt) cell proliferation, TMD-8 (CellTiter-Glo, 72 h).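 Further: viable cells quantified by ATP-based luminescence, proliferation expressed as percent of DMSO control after subtracting a time-zero baseline plate read at dosing.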 The settings on record: Homo sapiens, TMD8, 72 h, TMD-8 cells, 72 h, CellTiter-Glo; read-out: BTK WT TMD-8 GI50. It is filed as cell-based.
A short description of data set [3]: In vitro human hepatocytes clearance assay. The conditions noted are these: both, human, cryopreserved human hepatocytes (suspension), human hepatocytes Clint (µL/min/10^6cells), mixed gender human hepatocytes, incubation up to 100 min.
Data set [4] addresses T2, human EGFR exon 20 H773_V774insNPH (Homo sapiens, UniProt P00533, INS773NPH).
T2 construct: host or cells: Ba/F3
As to the kind of experiment: EGFR Exon20 NPH insertion cellular phosphorylation inhibition (MSD pEGFR Y1068/total EGFR).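 Further: IL3-independent Ba/F3 cells with constitutively phosphorylated EGFR, compound exposure at 37 °C under 5% CO2, electrochemiluminescent MSD measurement of the p-EGFR to total EGFR ratio.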 It is filed as cell-based. The conditions noted are these: Ba/F3 EGFR NPH ins cells, 4 h compound, p-EGFR(Y1068)/total EGFR.

Another data set deals with Ri-1 cells. Briefly: BTK (wt) cell proliferation, Ri-1 (CellTiter-Glo, 72 h).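 Further: viable cells quantified as cellular ATP luminescence, proliferation normalized to a time-zero plate and the DMSO control, compounds tested across a dilution series.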 Format: cell-based. The conditions noted are these: Ri-1, 72 h, Ri-1 cells, 72 h, CellTiter-Glo; read-out: BTK WT Ri-1 GI50.
The next data set relates to Ba/F3 EGFR ASV ins cells. Briefly: Cell proliferation, Ba/F3 EGFR ASV ins (CellTiter-Glo, 72 h).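 Further: IL3-independent Ba/F3 cells transduced with EGFR V769_D770insASV, cellular ATP luminescence after compound exposure, growth relative to DMSO control with the day-0 baseline reading subtracted.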 It is filed as cell-based. The settings on record: Ba/F3 EGFR, 72 h, Ba/F3 EGFR ASV ins, 72 h proliferation; read-out: EGFR Exon20 ASV insertion GI50.
The subject of data set [5] is Her2 exon 20 insertion YVMA transduced NIH-3T3 cell line. As to the kind of experiment: Cell proliferation, Her2 YVMAins NIH-3T3 (CellTiter-Glo, 72 h).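 Further: viable cells quantified by ATP luminescence, growth over a day-zero baseline plate expressed as percent of DMSO control growth, compound dilution series in 10% FBS medium.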 Format: cell-based. The conditions noted are these: Mus musculus, NIH3T3, 72 h, Her2 YVMAins cells, 72 h proliferation; read-out: Her2 Exon 20 YVMA insertion GI50.
A further data set deals with T3, EGFR L858R&T790M (Homo sapiens, UniProt P00533, L858R/T790M).
T3 construct: host or cells: NCI-H1975
T3 sequence (P00533 25-1210 T790M/L858R): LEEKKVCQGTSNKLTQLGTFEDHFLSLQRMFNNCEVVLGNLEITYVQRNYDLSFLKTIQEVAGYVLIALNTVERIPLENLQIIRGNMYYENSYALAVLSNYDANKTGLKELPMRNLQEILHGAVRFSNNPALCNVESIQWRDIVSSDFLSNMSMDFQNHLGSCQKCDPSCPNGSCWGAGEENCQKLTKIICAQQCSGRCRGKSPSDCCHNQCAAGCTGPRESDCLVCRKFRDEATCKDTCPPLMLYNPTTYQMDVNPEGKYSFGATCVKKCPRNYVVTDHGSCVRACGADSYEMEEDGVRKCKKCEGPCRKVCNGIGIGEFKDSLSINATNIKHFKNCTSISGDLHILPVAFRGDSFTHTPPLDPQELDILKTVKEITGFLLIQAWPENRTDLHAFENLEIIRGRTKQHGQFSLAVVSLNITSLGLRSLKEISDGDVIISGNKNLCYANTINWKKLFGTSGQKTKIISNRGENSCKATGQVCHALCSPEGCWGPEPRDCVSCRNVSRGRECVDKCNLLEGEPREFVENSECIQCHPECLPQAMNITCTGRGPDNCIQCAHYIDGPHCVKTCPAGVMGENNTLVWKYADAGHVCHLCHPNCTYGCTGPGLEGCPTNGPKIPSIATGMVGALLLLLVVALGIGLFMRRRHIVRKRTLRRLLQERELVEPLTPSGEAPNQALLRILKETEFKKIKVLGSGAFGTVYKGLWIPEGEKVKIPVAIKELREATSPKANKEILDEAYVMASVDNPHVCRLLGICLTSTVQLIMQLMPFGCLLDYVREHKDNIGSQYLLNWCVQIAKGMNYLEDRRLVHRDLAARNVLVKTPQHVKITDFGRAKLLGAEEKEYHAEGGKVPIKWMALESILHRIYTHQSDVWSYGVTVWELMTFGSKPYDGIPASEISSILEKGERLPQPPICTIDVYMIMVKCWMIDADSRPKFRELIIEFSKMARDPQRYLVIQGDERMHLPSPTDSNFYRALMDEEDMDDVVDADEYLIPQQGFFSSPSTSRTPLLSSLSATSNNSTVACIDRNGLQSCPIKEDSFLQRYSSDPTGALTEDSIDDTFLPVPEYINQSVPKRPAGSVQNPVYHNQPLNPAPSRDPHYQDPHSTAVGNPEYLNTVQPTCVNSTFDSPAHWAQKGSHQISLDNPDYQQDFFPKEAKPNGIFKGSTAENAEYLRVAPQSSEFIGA
As to the kind of experiment: EGFR L858R and T790M cellular phosphorylation inhibition in NCI-H1975 (MSD).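 Further: phosphorylated and total EGFR detected by electrochemiluminescence, cells exposed to compound in medium containing 1% FBS at 37 °C.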 Format: cell-based. The conditions noted are these: NCI-H1975 cells, 4 h compound, p-EGFR(Y1068)/total EGFR; read-out: EGFR L858R and T790M mutation IC50.

In data set [6] the test system is NCI-H1975 EGFR L858R/T790M cells. As to the kind of experiment: Cell proliferation, NCI-H1975 EGFR L858R/T790M (CellTiter-Glo, 72 h).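 Further: viable cells quantified by luciferase-based ATP luminescence, proliferation expressed relative to DMSO-treated wells (100%) after subtracting a parallel plate read at the time of dosing.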 The settings on record: Homo sapiens, NCI-H1975, 72 h, NCI-H1975, 72 h proliferation; read-out: EGFR L858R and T790M mutation GI50. Format: cell-based.
The target in data set [7] is T4, human Her2 exon 20 insertion mutation YVMA (Homo sapiens, UniProt P04626, INS775YVMA).
T4 construct: expressed in transfected cells; host or cells: NIH-3T3, lentiviral transduction, puromycin selection
T4 sequence (P04626 with tags, fused parts or gaps INS775YVMA): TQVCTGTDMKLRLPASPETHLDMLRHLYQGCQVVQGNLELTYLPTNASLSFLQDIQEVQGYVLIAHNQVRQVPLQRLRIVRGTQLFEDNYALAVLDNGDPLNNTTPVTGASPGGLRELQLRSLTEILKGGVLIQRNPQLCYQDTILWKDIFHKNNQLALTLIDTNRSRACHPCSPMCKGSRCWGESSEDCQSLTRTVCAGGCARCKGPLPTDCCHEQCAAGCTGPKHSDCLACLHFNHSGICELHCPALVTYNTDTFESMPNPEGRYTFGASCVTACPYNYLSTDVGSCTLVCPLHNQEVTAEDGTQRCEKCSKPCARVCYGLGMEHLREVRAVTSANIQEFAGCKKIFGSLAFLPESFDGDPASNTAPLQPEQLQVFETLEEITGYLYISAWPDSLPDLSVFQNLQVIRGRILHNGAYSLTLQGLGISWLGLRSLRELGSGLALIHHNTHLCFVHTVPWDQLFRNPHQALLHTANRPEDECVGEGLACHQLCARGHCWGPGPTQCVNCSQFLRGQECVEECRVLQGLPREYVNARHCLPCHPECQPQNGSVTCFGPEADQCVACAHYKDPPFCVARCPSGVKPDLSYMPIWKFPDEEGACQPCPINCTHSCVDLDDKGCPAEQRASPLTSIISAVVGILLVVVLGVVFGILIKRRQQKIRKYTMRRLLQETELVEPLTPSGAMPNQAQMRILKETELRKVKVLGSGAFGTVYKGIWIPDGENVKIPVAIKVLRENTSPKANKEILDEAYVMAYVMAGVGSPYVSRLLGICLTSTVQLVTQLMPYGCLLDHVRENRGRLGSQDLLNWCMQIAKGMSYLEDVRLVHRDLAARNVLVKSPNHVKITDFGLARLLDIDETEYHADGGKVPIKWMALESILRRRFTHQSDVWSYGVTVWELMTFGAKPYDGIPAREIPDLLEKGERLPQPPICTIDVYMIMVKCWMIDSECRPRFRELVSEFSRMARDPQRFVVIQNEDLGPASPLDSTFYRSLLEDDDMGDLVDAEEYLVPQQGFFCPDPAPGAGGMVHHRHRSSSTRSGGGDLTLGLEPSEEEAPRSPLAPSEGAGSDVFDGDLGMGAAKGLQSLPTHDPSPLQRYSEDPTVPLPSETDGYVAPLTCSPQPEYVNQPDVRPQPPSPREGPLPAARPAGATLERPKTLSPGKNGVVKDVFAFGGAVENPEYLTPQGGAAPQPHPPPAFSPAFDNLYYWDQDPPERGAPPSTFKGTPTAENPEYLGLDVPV
As to the kind of experiment: Her2 Exon 20 YVMA insertion cellular phosphorylation inhibition (MSD p-Her2 Y1248/total Her2).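 Further: lentivirally transduced NIH-3T3 cells in 1% FBS medium, electrochemiluminescent MSD read-out, graded compound concentrations at 37 °C.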 The settings on record: Her2 YVMAins cells, 4 h compound. It is filed as cell-based.
Protocol: The resulting cell line expressed phosphorylated Her2 protein and its proliferation depended on the mutation gene, which could be used for in vitro PD and anti-proliferation assays.
One day before the test, WT or mutant cells were seeded in 96 well plates at appropriate concentrations with corresponding growth media supplemented with 1% FBS, and incubated overnight. The next day, tested compounds at a series of concentrations were added into each individual well of the plates, and the plates were incubated for 4 h at 37° C. with 5% CO2.
The EGFR (Y1068) phosphorylation level (activity) of cells in each well were then measured with MSD kit named “MULTI-SPOT®96 4-Spot HB Prototype EGFR Triplex [sequence]: pEGFR(Tyr1068),pEGFR(Tyr1173), Total EGFR” according to the manufacturer’s instruction (MESO SCALE DISCOVERY, Cat# N45ZB-1). The assay is an electrochemiluminescent method for determining both phosphorylated and total EGFR of cells with an MSD SECTOR® Imager and the ratio of p-EGFR/total EGFR can be generated by the machine. The Her2 (Y1248) phosphorylation level (activity) of cells in each well were measured with MSD Kit named “Phospho-ErbB2 (Tyr1248) Assay Whole Cell Lysate Kit” according to the manufacturer’s instruction (MESO SCALE DISCOVERY, Cat# K151CLD-3). The assay is an electrochemiluminescent method (MESO SCALE DISCOVERY) for determining both phosphorylated and total Her2 of cells with an MSD SECTOR® Imager and then the ratio of p-Her2/total Her2 can be generated by the machine.

In another data set the target is T5, WT EGFR (Homo sapiens, UniProt P00533).
T5 construct: host or cells: A-431
T5 sequence (P00533 25-1210): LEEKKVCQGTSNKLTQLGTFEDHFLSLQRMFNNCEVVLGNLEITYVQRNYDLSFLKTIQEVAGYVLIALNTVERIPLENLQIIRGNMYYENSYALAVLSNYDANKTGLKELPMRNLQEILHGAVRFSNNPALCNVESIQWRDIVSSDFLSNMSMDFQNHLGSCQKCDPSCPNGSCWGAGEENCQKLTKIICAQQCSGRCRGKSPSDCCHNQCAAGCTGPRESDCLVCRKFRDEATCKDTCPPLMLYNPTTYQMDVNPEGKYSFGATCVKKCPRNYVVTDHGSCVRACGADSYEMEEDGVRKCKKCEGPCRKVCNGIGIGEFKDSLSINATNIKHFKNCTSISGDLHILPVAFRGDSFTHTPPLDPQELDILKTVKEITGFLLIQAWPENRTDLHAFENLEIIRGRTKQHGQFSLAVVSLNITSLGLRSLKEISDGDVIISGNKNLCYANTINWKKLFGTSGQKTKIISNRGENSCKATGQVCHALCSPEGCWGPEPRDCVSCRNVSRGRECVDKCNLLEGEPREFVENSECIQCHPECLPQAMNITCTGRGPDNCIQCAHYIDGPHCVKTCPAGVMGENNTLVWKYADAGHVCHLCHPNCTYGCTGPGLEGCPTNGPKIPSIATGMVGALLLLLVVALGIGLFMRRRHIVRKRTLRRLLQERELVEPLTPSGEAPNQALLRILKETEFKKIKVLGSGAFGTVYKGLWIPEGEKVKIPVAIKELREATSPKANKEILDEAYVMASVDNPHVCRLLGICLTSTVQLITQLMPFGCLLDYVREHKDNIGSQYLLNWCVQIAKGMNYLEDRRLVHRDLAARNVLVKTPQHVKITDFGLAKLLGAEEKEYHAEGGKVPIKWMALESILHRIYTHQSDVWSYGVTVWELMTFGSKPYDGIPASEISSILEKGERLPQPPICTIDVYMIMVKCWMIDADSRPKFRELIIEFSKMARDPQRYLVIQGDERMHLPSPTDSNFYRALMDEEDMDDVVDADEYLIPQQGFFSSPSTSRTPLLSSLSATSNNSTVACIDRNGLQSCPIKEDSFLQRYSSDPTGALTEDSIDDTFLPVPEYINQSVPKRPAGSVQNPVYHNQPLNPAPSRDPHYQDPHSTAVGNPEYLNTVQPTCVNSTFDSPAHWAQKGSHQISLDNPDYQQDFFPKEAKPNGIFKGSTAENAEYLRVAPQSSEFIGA
Briefly: WT EGFR cellular phosphorylation inhibition in A-431 (hEGF stimulated, MSD).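 Further: electrochemiluminescence read-out of EGFR Tyr1068 phosphorylation expressed as ratio to total EGFR, cells kept in medium with 1% FBS, compounds tested as a concentration series.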 The conditions noted are these: A431 cells, 4 h compound, then 100 ng/ml hEGF 10 min. It is filed as cell-based.

A further data set concerns DB cells. As to the kind of experiment: BTK (wt) cell proliferation, DB (CellTiter-Glo, 72 h).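 Further: DB cells in 384-well plates given a dilution series of compound, viable cells read by ATP luminescence, growth expressed versus DMSO control after subtracting a time-zero plate reading.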 It is filed as cell-based. The settings on record: Homo sapiens, DB, DB cells, CellTiter-Glo, read-out: Non-BCR activated DB GI50.

The structures appear in SMILES notation. A value given as a limit tells only on which side of the number the result lay.

T2 sequence (P00533 with tags, fused parts or gaps INS773NPH): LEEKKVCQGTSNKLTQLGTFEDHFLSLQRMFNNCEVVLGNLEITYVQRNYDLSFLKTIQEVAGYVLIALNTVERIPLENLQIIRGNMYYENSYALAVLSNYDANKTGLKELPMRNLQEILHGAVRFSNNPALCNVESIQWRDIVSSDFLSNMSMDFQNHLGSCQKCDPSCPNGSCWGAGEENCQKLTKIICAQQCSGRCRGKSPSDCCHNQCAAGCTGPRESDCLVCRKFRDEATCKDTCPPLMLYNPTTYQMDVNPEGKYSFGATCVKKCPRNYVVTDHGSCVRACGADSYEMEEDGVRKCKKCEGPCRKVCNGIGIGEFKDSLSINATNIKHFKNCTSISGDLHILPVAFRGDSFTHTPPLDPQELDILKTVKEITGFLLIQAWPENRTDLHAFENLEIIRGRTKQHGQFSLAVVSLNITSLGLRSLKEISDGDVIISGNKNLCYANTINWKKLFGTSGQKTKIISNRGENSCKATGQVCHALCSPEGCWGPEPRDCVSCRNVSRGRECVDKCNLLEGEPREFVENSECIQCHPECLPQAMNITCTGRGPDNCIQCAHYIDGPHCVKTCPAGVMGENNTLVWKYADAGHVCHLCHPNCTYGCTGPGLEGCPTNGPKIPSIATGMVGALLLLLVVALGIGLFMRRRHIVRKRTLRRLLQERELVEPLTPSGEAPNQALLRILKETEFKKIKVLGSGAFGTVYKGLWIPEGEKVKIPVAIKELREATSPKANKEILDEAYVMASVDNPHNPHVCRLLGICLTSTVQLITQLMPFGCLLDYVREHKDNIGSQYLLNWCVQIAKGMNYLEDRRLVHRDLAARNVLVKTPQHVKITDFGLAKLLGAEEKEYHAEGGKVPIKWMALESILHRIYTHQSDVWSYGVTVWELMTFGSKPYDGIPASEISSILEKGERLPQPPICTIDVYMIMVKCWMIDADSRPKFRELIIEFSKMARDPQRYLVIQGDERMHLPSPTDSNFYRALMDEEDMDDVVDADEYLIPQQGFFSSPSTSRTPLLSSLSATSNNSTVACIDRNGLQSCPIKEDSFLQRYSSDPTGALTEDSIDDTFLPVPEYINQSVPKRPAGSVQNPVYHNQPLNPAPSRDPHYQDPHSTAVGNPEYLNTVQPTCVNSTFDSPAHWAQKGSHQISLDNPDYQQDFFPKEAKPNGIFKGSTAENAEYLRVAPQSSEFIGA
Protocol for Ba/F3 EGFR ASV ins cells: (§1) WT or mutant cells were seeded in 384 well plates at appropriate concentrations with corresponding growth media supplemented with 10% FBS, for each experiment, identical plates were prepared in duplicates, and the plates were incubated overnight. On the next day, one of each duplicated plates was dosed with tested compounds at a series of concentrations, and another one of the duplicated plate was analysied for G0 value. The dosed plates were incubate for another 72 h at 37° C. with 5% CO2 and the number of viable cells in each well of the G0 plates or the dosed plates were measured by CellTiter-Glo® Luminescent Cell Viability Assay (Promega). This assay is a luminescent method for determining the number viable cells through measurement of cellular ATP concentration by detection of luciferase activity. Detection reagents (15 µl) was dispensed into per well, and the plates were incubate for 30 min at room temperature. Then, the luminescence in each well was measured using the Envision plate reader (PerkinElmer). The percentage of proliferation was calculated based on the formula: %Proliferation= 100 × (G3 value of sample well-Go value)/(G3 value of DMSO control-Go value).
Protocol for WT EGFR cell line A-431: as §1

As a reminder, the GI50 is the concentration that inhibits growth by half. The hepatocyte CLint is the rate of metabolic loss divided by the concentration. The low end stands for greater metabolic stability, the high end for faster metabolism. The IC50 is the concentration that gives 50% inhibition. Turning to `C=CC(=O)Nc1cc(Nc2ncnc(Nc3cc(F)c(Cl)cc3C(C)(C)O)n2)c(OC)cc1N1CC[C@@H](N(C)C)C1` [Compound 51, (R)-N-(5-(4-(4-chloro-5-fluoro-2-(2-hydroxypropan-2-yl)phenylamino)-1,3,5-triazin-2-ylamino)-2-(3-(dimethylamino)pyrrolidin-1-yl)-4-methoxyphenyl)acrylamide], the GI50 in the data set with WT EGFR cell line A-431 came out at 13.4 nM; in the data set on OCI-LY-10 cells, 6.73 nM; in the data set on Ba/F3 EGFR NPH ins cells, 52.9 nM; in the data set with TMD-8 cells it was 3.62 nM; with Ri-1 cells it was 10.3 nM; in the data set with Ba/F3 EGFR ASV ins cells it was 35.4 nM. Further, the GI50 in data set [5] is 105 nM; in data set [6] it was 1.9 nM; in the data set with DB cells, above 3000 nM. Further, the hepatocyte CLint at 1 µM came to 5.97 µL/min/1e6 cells in [1] and 4.02 µL/min/1e6 cells in data set [3]. The IC50 worked out at 16.1 nM in data set [2]; 28.6 nM in [4]; 1 nM on EGFR L858R&T790M; 19.9 nM in data set [7]; 12.6 nM against WT EGFR.
For the compound `C=CC(=O)Nc1cc(Nc2ncnc(Nc3cc(Cl)c(Cl)cc3C(C)(C)O)n2)c(OC)cc1N1CC[C@@H](N(C)C)C1` [Compound 61, (R)-N-(5-(4-(4,5-dichloro-2-(2-hydroxypropan-2-yl)phenylamino)-1,3,5-triazin-2-ylamino)-2-(3-(dimethylamino)pyrrolidin-1-yl)-4-methoxyphenyl)acry lamide], the GI50 in the data set on WT EGFR cell line A-431 worked out at 12.4 nM; with OCI-LY-10 cells, 2.72 nM; in the data set with Ba/F3 EGFR NPH ins cells, 18.8 nM; in the data set on TMD-8 cells, 1.03 nM; in the data set on Ri-1 cells, 5.62 nM; in the data set on Ba/F3 EGFR ASV ins cells, 25.6 nM. Besides, the GI50 in data set [5] came out at 87.8 nM; in [6] it was 2.1 nM; in the data set on DB cells, 1510 nM. Also, the values for the hepatocyte CLint at 1 µM in data set [1] and in data set [3] were 7.9 µL/min/1e6 cells and 2.71 µL/min/1e6 cells, respectively. The IC50 turned out to be 12.3 nM in data set [2]; 14.2 nM in [4]; 0.4 nM on EGFR L858R&T790M; 9 nM in data set [7]; 18 nM on WT EGFR.
As for `C=CC(=O)Nc1cc(Nc2nccc(Nc3cc(Cl)c(Cl)cc3C(C)(C)O)n2)c(OC)cc1N1CC[C@@H](N(C)C)C1` [Compound 68, (R)-N-(5-(4-(4,5-dichloro-2-(2-hydroxypropan-2-yl)phenylamino)pyrimidin-2-ylamino)-2-(3-(dimethylamino)pyrrolidin-1-yl)-4-methoxyphenyl)acrylamide], the GI50 with WT EGFR cell line A-431 amounted to 20.8 nM; in the data set on OCI-LY-10 cells, 11.4 nM; in the data set on Ba/F3 EGFR NPH ins cells, 33 nM; in the data set on TMD-8 cells, 3.6 nM; in the data set with Ri-1 cells, 13.6 nM; in the data set with Ba/F3 EGFR ASV ins cells it was 46.1 nM. Moreover, the GI50 in data set [5] was 96.7 nM; in [6], 2.8 nM; with DB cells, 2510 nM. Moreover, the values for the hepatocyte CLint at 1 µM in data set [1] and in data set [3] were 17.5 µL/min/1e6 cells and 3.89 µL/min/1e6 cells, respectively. The IC50 in [2] stood at 27 nM; in [4] it was 31.5 nM; at EGFR L858R&T790M, 1.7 nM; in data set [7], 15.3 nM; at WT EGFR, 136 nM.
As to `C=CC(=O)Nc1cc(Nc2ncnc(Nc3cc(Cl)c(F)cc3C(C)(C)O)n2)c(OC)cc1N1CC[C@@H](NC)C1` [Compound 73, (R)-N-(5-(4-(5-chloro-4-fluoro-2-(2-hydroxypropan-2-yl)phenylamino)-1,3,5-triazin-2-ylamino)-4-methoxy-2-(3-(methylamino)pyrrolidin-1-yl)phenyl) acrylamide], the GI50 in the data set with WT EGFR cell line A-431 turned out to be 8 nM; in the data set on OCI-LY-10 cells, 16.3 nM; with Ba/F3 EGFR NPH ins cells, 43.2 nM; in the data set on TMD-8 cells it was 3.75 nM; in the data set with Ri-1 cells, 151 nM; with Ba/F3 EGFR ASV ins cells, 27.4 nM. Besides, the GI50 is 26 nM in data set [5], 3.3 nM in [6] and above 3000 nM in the data set with DB cells. The hepatocyte CLint at 1 µM in [1] turned out to be 6.15 µL/min/1e6 cells; in [3], 1.1 µL/min/1e6 cells. The IC50 in data set [2] was determined as 8.6 nM; in data set [4], 22.6 nM; at EGFR L858R&T790M, 0.7 nM; in data set [7], 12.2 nM; against WT EGFR it was 27.8 nM.

Values taken from patent US20230293535A1, “ERBB/BTK INHIBITORS” (Dizal (Jiangsu) Pharmaceutical Co., Ltd., priority 2018, published 2023).
